{
  "source": "EPA's ToxValDB 9.5 (doi:10.2903/j.efsa.2010.1632)",
  "key": {"[1]": {"system": "Aphidius rhopalosiphi", "experiment": "LR50; higher = less toxic", "conditions": "acute; duration: 48 hours; mortality"}, "[2]": {"system": "Oncorhynchus mykiss", "conditions": "acute; duration: 96 hours; mortality"}, "[3]": {"system": "Daphnia magna", "conditions": "chronic/long-term; duration: 21 days; reproduction"}, "[4]": {"system": "Canidae", "conditions": "oral, Dog Other, body weight"}, "[5]": {"system": "Anas platyrhynchos"}, "[6]": {"system": "Rattus norvegicus", "conditions": "body weight"}, "[7]": {"system": "Colinus virginianus"}, "[8]": {"system": "Neomysis kadiakensis", "conditions": "chronic/long-term; duration: 35 days; reproduction"}, "[9]": {"system": "Mus musculus", "conditions": "chronic; duration: 78 weeks; body weight"}, "[10]": {"system": "Bibionidae", "conditions": "chronic/long-term; duration: 28 days; development"}, "[11]": {"system": "Folsomia candida", "conditions": "chronic/long-term; duration: 28 days; reproduction"}, "[12]": {"system": "Tagia sp."}, "[13]": {"system": "Oryctolagus sp.", "conditions": "reproduction developmental; body weight"}, "[14]": {"system": "Lycopersicon sp.", "conditions": "not reported; seedling emergence"}, "[15]": {"system": "Cyprinodon variegatus", "conditions": "acute; duration: 96 hours; mortality"}, "[16]": {"system": "Apis mellifera", "conditions": "acute; duration: 48 hours; dermal; mortality"}, "[17]": {"system": "Pimephales promelas", "conditions": "chronic/long-term; duration: 301 days; other"}},
  "data": [
    {"smiles": "CC(C)(C)c1ccc(CSc2cnn(C(C)(C)C)c(=O)c2Cl)cc1", "note": "[Pyridaben]", "values": [
      {"measurement": "LR50", "setting": "[1]", "result": 0.24, "unit": "g/ha"},
      {"measurement": "LC50", "setting": "[2]", "result": 0.73, "unit": "ng/mL"},
      {"measurement": "NOEC", "setting": "[3]", "result": "8.6e-05", "unit": "mg/L"},
      {"measurement": "NOAEL", "setting": "[4]; chronic, duration: 1 years", "result": 1, "unit": "mg/kg-day"},
      {"measurement": "NOAEL", "setting": "[4]; subchronic, duration: 3 months", "result": 1, "unit": "mg/kg-day"},
      {"measurement": "LD50", "setting": "[5]; acute, oral, unspecified, mortality", "result": "> 2500", "unit": "mg/kg-day"},
      {"measurement": "NOEC", "setting": "[5]; reproductive", "result": 10, "unit": "mg/kg-day"},
      {"measurement": "NOEC", "setting": "[5]; short-term, oral, feed, mortality", "result": 659, "unit": "mg/kg-day"},
      {"measurement": "NOEC", "setting": "[6]; chronic", "result": 2.37, "unit": "mg/kg-day"},
      {"measurement": "NOAEL", "setting": "[6]; chronic, duration: 2 years", "result": 1.1, "unit": "mg/kg-day"},
      {"measurement": "NOAEL", "setting": "[6]; reproduction developmental", "result": 4.7, "unit": "mg/kg-day"},
      {"measurement": "LC50", "setting": "[7]; acute, oral, diet, mortality", "result": "> 4300", "unit": "mg/kg-day"},
      {"measurement": "LD50", "setting": "[7]; acute, oral, mortality", "result": "> 2250", "unit": "mg/kg-day"},
      {"measurement": "NOEC", "setting": "[7]; reproduction developmental", "result": 130, "unit": "mg/kg-day"},
      {"measurement": "NOEC", "setting": "[8]", "result": "4.7e-05", "unit": "mg/L"},
      {"measurement": "NOAEL", "setting": "[9]", "result": 0.81, "unit": "mg/kg-day"},
      {"measurement": "NOEC", "setting": "[10]", "result": 0.0051, "unit": "mg/L"},
      {"measurement": "NOEC", "setting": "[11]", "result": 3.28, "unit": "mg/kg"},
      {"measurement": "LC50", "setting": "[12]; acute, duration: 14 days, mortality", "result": "> 38", "unit": "mg/kg"},
      {"measurement": "NOEC", "setting": "[12]; chronic/long-term, duration: 56 days, reproduction", "result": 0.29, "unit": "mg/kg"},
      {"measurement": "NOAEL", "setting": "[13]", "result": 5, "unit": "mg/kg-day"},
      {"measurement": "LEL", "setting": "[14]", "result": 560, "unit": "g/ha"},
      {"measurement": "LC50", "setting": "[15]", "result": 17, "unit": "ng/mL"},
      {"measurement": "LD50", "setting": "[16]", "result": "> 0.024", "unit": "µg/piece"},
      {"measurement": "NOEC", "setting": "[17]", "result": 0.00028, "unit": "mg/L"}
    ]}
  ]
}
